Experimental data reported in ChEMBL document CHEMBL1201862, “PubChem BioAssay data set” (2004).
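Interpolation was linear, between the two tested concentrations surrounding the appropriate level; five concentrations were tested over 48 hours in 96-well plates. GI50 = concentration required for 50% inhibition of growth.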 Activity calls are given as the source filed them. Rule as the data show it: active = GI50 up to about 1.1 µM and inactive = higher.

How the values were obtained:
Experiment in all cases: DTP human tumour cell line panel, 48 h
HT-29 = test system: HT-29
NCI/ADR-RES = test system: NCI/ADR-RES
EKVX = test system: EKVX
SK-MEL-2 = test system: SK-MEL-2
ACHN = test system: ACHN
MDA-N = test system: MDA-N
Malme-3M = test system: Malme-3M
M14 = test system: M14
NCI-H226 = test system: NCI-H226
A498 = test system: A498
IGROV-1 = test system: IGROV-1
SW-620 = test system: SW-620
SN12C = test system: SN12C
OVCAR-4 = test system: OVCAR-4
RXF 393 = test system: RXF 393
SNB-19 = test system: SNB-19
HCT-116 = test system: HCT-116
786-0 = test system: 786-0
HCT-15 = test system: HCT-15
CAKI-1 = test system: CAKI-1
SF-295 = test system: SF-295
DU-145 = test system: DU-145
SK-MEL-28 = test system: SK-MEL-28
OVCAR-8 = test system: OVCAR-8
HOP-62 = test system: HOP-62
MDA-MB-435 = test system: MDA-MB-435
MOLT-4 = test system: MOLT-4
HOP-92 = test system: HOP-92
SNB-75 = test system: SNB-75
Hs-578T = test system: Hs-578T
HL-60 = test system: HL-60
SK-OV-3 = test system: SK-OV-3
CCRF-CEM = test system: CCRF-CEM
OVCAR-5 = test system: OVCAR-5
UACC-62 = test system: UACC-62
LOX IMVI = test system: LOX IMVI
MDA-MB-231 = test system: MDA-MB-231
SF-268 = test system: SF-268
UACC-257 = test system: UACC-257
T47D = test system: T47D
KM12 = test system: KM12
NCI-H522 = test system: NCI-H522
OVCAR-3 = test system: OVCAR-3
SK-MEL-5 = test system: SK-MEL-5
COLO 205 = test system: COLO 205
A549 = test system: A549
SF-539 = test system: SF-539
MCF7 = test system: MCF7
RPMI-8226 = test system: RPMI-8226
HCC 2998 = test system: HCC 2998
K562 = test system: K562
TK-10 = test system: TK-10
UO-31 = test system: UO-31
NCI-H23 = test system: NCI-H23
BT-549 = test system: BT-549
PC-3 = test system: PC-3
U-251 = test system: U-251
NCI-H460 = test system: NCI-H460

Measured: GI50

O=C(O)C1C(C(=O)Nc2ccc3c(c2)Cc2ccccc2-3)C2(Cl)C(Cl)=C(Cl)C1(Cl)C2(Cl)Cl (configuration not stated)
21.5 µM: HCT-15
inactive: HT-29 20.3 µM | NCI/ADR-RES 36.6 µM | EKVX 34.4 µM | SK-MEL-2 19.1 µM | ACHN 30.3 µM | MDA-N 35.6 µM | Malme-3M 20.6 µM | M14 20.4 µM | NCI-H226 29 µM | A498 19.4 µM | IGROV-1 20 µM | SW-620 25.6 µM | SN12C 33.3 µM | OVCAR-4 27.7 µM | RXF 393 20.5 µM | SNB-19 36 µM | HCT-116 18.7 µM | 786-0 30.3 µM | CAKI-1 41.9 µM | SF-295 39.1 µM | DU-145 31.1 µM | SK-MEL-28 21.5 µM | OVCAR-8 20.3 µM | HOP-62 31.2 µM | MDA-MB-435 29.1 µM | MOLT-4 11.6 µM | HOP-92 21.5 µM | SNB-75 26.2 µM | Hs-578T 19.9 µM | HL-60 26.6 µM | SK-OV-3 45.5 µM | CCRF-CEM 18.7 µM | OVCAR-5 20.4 µM | UACC-62 16.1 µM | LOX IMVI 18.4 µM | MDA-MB-231 20.2 µM | SF-268 26.2 µM | UACC-257 20.6 µM | T47D 32.1 µM | KM12 18.7 µM | NCI-H522 18.6 µM | OVCAR-3 17.6 µM | SK-MEL-5 14.2 µM | COLO 205 17.6 µM | A549 33.3 µM | SF-539 13.2 µM | MCF7 22.5 µM | RPMI-8226 14.6 µM | HCC 2998 20.6 µM | K562 2.6 µM | TK-10 27.2 µM | UO-31 22.5 µM | NCI-H23 17.5 µM | BT-549 19.1 µM | PC-3 15.6 µM | U-251 15.2 µM

COc1ccc2c(c1)CC[C@@H]1[C@@H]2CC[C@]2(C)[C@@H](O)/C(=C/c3ccncc3)C[C@@H]12
inactive: HT-29 3.99 µM | NCI/ADR-RES 15 µM | EKVX 18.5 µM | SK-MEL-2 16.3 µM | ACHN 26.5 µM | MDA-N 12.4 µM | Malme-3M 12.3 µM | M14 11.3 µM | NCI-H226 20.1 µM | A498 17.5 µM | IGROV-1 14.9 µM | SW-620 6.41 µM | SN12C 22.8 µM | OVCAR-4 23.2 µM | RXF 393 4.25 µM | SNB-19 18.8 µM | HCT-116 11 µM | 786-0 14.2 µM | CAKI-1 14.8 µM | SF-295 10.5 µM | DU-145 18 µM | SK-MEL-28 15.3 µM | OVCAR-8 14.4 µM | HOP-62 16.9 µM | MDA-MB-435 9.77 µM | MOLT-4 4.65 µM | HOP-92 14 µM | SNB-75 10.4 µM | Hs-578T 12.8 µM | HL-60 7.98 µM | SK-OV-3 21.2 µM | CCRF-CEM 11.1 µM | OVCAR-5 12.5 µM | UACC-62 13.8 µM | MDA-MB-231 14.2 µM | SF-268 12.6 µM | UACC-257 16.6 µM | T47D 5.14 µM | KM12 9.71 µM | NCI-H522 14 µM | OVCAR-3 18.5 µM | SK-MEL-5 9.75 µM | COLO 205 3.94 µM | A549 9.84 µM | MCF7 16.6 µM | RPMI-8226 3.69 µM | HCC 2998 8.59 µM | TK-10 18.9 µM | UO-31 14 µM | NCI-H23 12.8 µM | NCI-H460 14.2 µM | BT-549 15.7 µM | PC-3 10.1 µM | U-251 12.4 µM
6.95 µM: HCT-15
